Data on 53 compounds can be found in patent US20070059364A1, “Active substance combination comprising a compound with npy receptor affinity and a compound with 5-ht6 receptor affinity” (Laboratorios Del Dr. Esteve S.A., priority 2003, published 2007).

Counter-ions that a name gives are not always drawn.

One may read the melting point as the temperature of the solid-liquid transition. The compound `O=S(=O)(Nc1ccc2c(ccn2CCCN2CCCCC2)c1)c1cccc2c(Cl)cccc12` [Example 52e, 5-chloro-N-(1-(3-(piperidin-1-yl)propyl)-1H-indol-5-yl)naphthalene-1-sulfonamide] showed a melting point of 92 to 96 °C.

Turning to `Cl.O=C(CN1CCC(N2C(=O)OCc3cc(Cl)ccc32)CC1)Nc1ccccc1C(=O)c1ccccc1`, the melting point was 167 to 178 °C.

`Cl.O=C(CN1CCC(N2C(=O)OCc3cc(Cl)ccc32)CC1)Nc1ccc2c(c1)C(O)c1ccccc1-2` (centres unmarked) yielded a melting point of 286 to 289 °C.

Take `Cl.O=C(CCN1CCC(N2C(=O)OCc3ccccc32)CC1)Nc1ccc2c(c1)-c1ccccc1C2=O`: the melting point lay in the range of 240 to 242 °C.

For the compound `Cc1cc2cc(NS(=O)(=O)c3ccc(-c4ccccc4)cc3)ccc2n1CCN(C)C` [Example 36e, N-(1-(2-(dimethylamino)ethyl)-2-methyl-1H-indol-5-yl)-4-phenylbenzenesulfonamide], the melting point was in the range of 176 to 177 °C.

With `Cc1cccc2c1COC(=O)N2C1CCN(CC(=O)Nc2ccc3oc4ccccc4c3c2)CC1`, the melting point was found to be 204 °C.

The compound `Cc1ccc2c(c1)COC(=O)N2C1CCN(CC(=O)Nc2ccccc2C(=O)c2ccccc2)CC1` displayed a melting point of 167 to 170 °C.

Consider `CN(C)CCn1ccc2cccc(NS(=O)(=O)c3ccc(-c4ccccc4)cc3)c21` [Example 3g, N-[1-(2-dimethylaminoethyl)-1H-indole-7-yl]-4-phenylbenzenesulfonamide], for which the melting point fell in the range of 137 to 140 °C.

For the compound `CN(C)CCc1c[nH]c2ccc(NS(=O)(=O)c3ccc4ccccc4c3)cc12`, the melting point fell in the range of 180 to 190 °C.

Compound `Cl.O=C(CN1CCC(N2C(=O)OCc3ccccc32)CC1)Nc1ccc2c(c1)-c1ccccc1C2O` (centres unmarked) displayed a melting point of 270 to 273 °C.

Consider `Cc1ccc2c(c1)COC(=O)N2C1CCN(CC(=O)Nc2ccc3c(c2)-c2ccccc2C3=O)CC1`, for which the melting point fell in the range of 237 to 239 °C.

In the case of `Cc1cccc2c1N(C1CCN(CC(=O)Nc3ccc4c(c3)C(=O)c3ccccc3-4)CC1)C(=O)OC2.Cl`, the melting point is > 300 °C (dec.).

For `Cl.O=C(CN1CCC(N2C(=O)OCc3ccccc32)CC1)Nc1ccccc1`, the melting point lay within 262 to 272 °C.

In turn, `Cc1c(S(=O)(=O)Nc2ccc3[nH]cc(C4CCN5CCCC5C4)c3c2)sc2ccc(Cl)cc12` (centres unmarked) [Example 38c, N-[3-(octahydroindolizin-7-yl)-1H-indol-5-yl]-5-chloro-3-methylbenzo[b]thiophene-2-sulphonamide] registered a melting point of 142 to 144 °C.

In turn, `Cc1cccc2c1N(C1CCN(CC(=O)Nc3ccc4c(c3)-c3ccccc3C4O)CC1)C(=O)OC2.Cl` (centres unmarked) returned a melting point of 207 to 212 °C.

In the case of `O=S(=O)(Nc1ccc2ccn(CCN3CCCC3)c2c1)c1c(Cl)nc2sccn12` [Example 12f, 6-Chloro-N-[1-[2-(pyrrolidin-1-yl)ethyl]-1H-indol-6-yl]-imidazo[2,1-b]thiazole-5-sulfonamide], the melting point lay within 53 to 57 °C.

`Cc1c(S(=O)(=O)Nc2ccc3[nH]cc(CCN4CCCC4)c3c2)sc2ccc(Cl)cc12`: the melting point is 201 to 203 °C.

`Cl.O=C(CN1CCC(N2C(=O)OCc3cc(Cl)ccc32)CC1)Nc1ccc2c(c1)C(=O)c1ccccc1-2`: the melting point is > 300 °C (dec.).

Consider `Cc1cc2cc(NS(=O)(=O)c3ccc4ccccc4c3)ccc2n1CCN(C)C`, for which the melting point was 199 to 200 °C.

`CCn1c2ccccc2c2cc(NC(=O)CN3CCC(N4C(=O)OCc5cc(C)ccc54)CC3)ccc21.Cl` displayed a melting point of 247 to 252 °C.

With `CC(C(=O)Nc1ccc2c(c1)-c1ccccc1C2=O)N1CCC(N2C(=O)OCc3ccccc32)CC1.Cl` (centres unmarked), the melting point is 242 to 252 °C.

In the case of `CN(C)CCn1ccc2cc(NS(=O)(=O)c3ccccc3)ccc21`, the melting point was in the range of 139 to 141 °C.

Turning to `Cc1cc2cc(NS(=O)(=O)c3cccc4ccccc34)ccc2n1CCN(C)C` [Example 34e, N-(1-(2-(dimethylamino)ethyl)-2-methyl-1H-indol-5-yl)-naphthalene-1-sulfonamide], the melting point is 183 to 184 °C.

Take `CCN(CC)CCc1c[nH]c2ccc(NS(=O)(=O)c3cccc4ccccc34)cc12` (as salt: hydrochloride): the melting point was in the range of 255 to 257 °C.

In the case of `Cl.O=C(CN1CCC(N2C(=O)OCc3cc(Cl)ccc32)CC1)Nc1ccc(Oc2ccccc2)cc1`, the melting point fell in the range of 262 to 267 °C.

In turn, `CCN(CC)CCc1c[nH]c2ccc(NS(=O)(=O)c3ccc(Cl)s3)cc12` [Example 6c, N-[3-(2-diethylaminoethyl)-1H-indol-5-yl]-5-chlorothiophene-2-sulphonamide] gave a melting point of 180 to 181 °C.

On to `CN1CCN(CCc2c[nH]c3ccc(NS(=O)(=O)c4cccc5c(Cl)cccc45)cc23)CC1` [Example 53c, N-[3-(4-methylpiperazin-1-yl)ethyl-1H-indol-5-yl]-5-chloronaphthalene-1-sulphonamide], for which the melting point was in the range of 246 to 249 °C.

Consider `Cc1cc2cc(NS(=O)(=O)c3c(Cl)nc4sccn34)ccc2n1CCN(C)C` [Example 35e, 6-chloro-N-(1-(2-(dimethylamino)ethyl)-2-methyl-1H-indol-5-yl)imidazo[2,1-b]thiazole-5-sulfonamide], for which the melting point lay within 182 to 183 °C.

In the case of `CCN(CC)CCc1c[nH]c2ccc(NS(=O)(=O)c3ccc4ccccc4c3)cc12`, the melting point lay in the range of 134 to 136 °C.

`CN(C)CCc1c[nH]c2ccc(NS(=O)(=O)c3ccc(-c4ccccc4)cc3)cc12` displayed a melting point of 184 to 186 °C.

Take `CN(C)CCn1ccc2ccc(NS(=O)(=O)c3cccc4ccccc34)cc21` [Example 3f, N-[1-(2-Dimethylaminoethyl)-1H-indol-6-yl]-naphthalene-1-sulfonamide]: the melting point was in the range of 139 to 142 °C.

The compound `CN(C)CCc1c[nH]c2ccc(NS(=O)(=O)c3cccc4c(Cl)cccc34)cc12` registered a melting point of 201 to 203 °C.

For `CN1CC=C(c2cn(S(=O)(=O)C3CCCCC3)c3ccc(N)cc23)CC1` [Example 3h, 5-Amino-1-cyclohexanesulfonyl-3-(1-methyl-1,2,3,6-tetrahydropyridine-4-yl)-1H-indole], the melting point is 75 °C (dec.).

Compound `O=S(=O)(Nc1cccc2ccn(CCN3CCCC3)c12)c1cccc2ccccc12` [Example 6g, N-(1-(2-(pyrrolidin-1-yl)ethyl)-1H-indol-7-yl)naphthalene-1-sulfonamide] came in with a melting point of 196 to 199 °C.

Take `O=C(CN1CCC(N2C(=O)OCc3ccccc32)CC1)Nc1ccc2c(c1)CCC2=O`: the melting point lay in the range of 206 to 209 °C.

For `Cl.O=C(CN1CCC(N2C(=O)OCc3cc(Cl)ccc32)CC1)Nc1ccc(C(F)(F)F)cc1`, the melting point fell in the range of 284 to 285 °C.

In turn, `CCN(c1ccccc1)c1ccc(NC(=O)CN2CCC(N3C(=O)OCc4ccc(C)cc43)CC2)cc1` displayed a melting point of 199 °C.

`O=S(=O)(CCc1cccc2ccccc12)Nc1cccc2ccn(CCN3CCCC3)c12` [Example 8g, 2-(naphth-1-yl)-N-(1-(2-(pyrrolidin-1-yl)ethyl)-1H-indol-7-yl)ethansulfonamide]: the melting point is 46 to 49 °C.

`Cc1c(S(=O)(=O)Nc2ccc3c(c2)cc(C)n3CCN(C)C)sc2ccc(Cl)cc12` [Example 32e, 5-chloro-N-(1-(2-(dimethylamino)ethyl)-2-methyl-1H-indol-5-yl)-3-methylbenzo[b]thiophene-2-sulfonamide] gave a melting point of 203 to 205 °C.

In the case of `Cc1cccc2c1N(C1CCN(CC(=O)Nc3ccc4c(c3)C(O)c3ccccc3-4)CC1)C(=O)OC2.Cl` (centres unmarked), the melting point is 283 to 285 °C.

For the compound `CN(C)CCn1ccc2cc(NS(=O)(=O)c3ccc([N+](=O)[O-])cc3)ccc21` [Example 25e, N-[1-(2-dimethylaminoethyl)-1H-indole-5-yl]-4-nitrobenzenesulfonamide], the melting point fell in the range of 60 to 64 °C.

The compound `CCCCN(CCCC)CCc1c[nH]c2ccc(NS(=O)(=O)c3sc4ccc(Cl)cc4c3C)cc12` returned a melting point of 79 to 80 °C.

Compound `CCCN(CCC)CCc1c[nH]c2ccc(NS(=O)(=O)c3sc4ccc(Cl)cc4c3C)cc12` gave a melting point of 90 to 95 °C.

In turn, `O=S(=O)(Nc1ccc2ccn(CCN3CCCC3)c2c1)c1ccc(-c2ccccc2)cc1` [Example 13f, 4-Phenyl-N-(1-(2-(pyrrolidin-1-yl)ethyl)-1H-indol-6-yl)-benzenesulfonamide] came in with a melting point of 178 to 181 °C.

`Cl.O=C(CN1CCC(N2C(=O)OCc3cc(Cl)ccc32)CC1)Nc1ccc2c(c1)-c1ccccc1C2O` (centres unmarked) yielded a melting point of 219 to 222 °C.

Turning to `Cl.O=C(CN1CCC(N2C(=O)OCc3ccccc32)CC1)Nc1ccc2c(c1)C(O)c1ccccc1-2` (centres unmarked), the melting point was > 225 °C (dec.).

As for `Cc1c(S(=O)(=O)Nc2ccc3c(ccn3CCN(C)C)c2)sc2ccc(Cl)cc12` [Example 1e, N-[1-(2-dimethylaminoethyl)-1H-indole-5-yl]-5-chloro-3-methylbenzo[b]thiophene-2-sulfonamide], the melting point lay in the range of 71 to 73 °C.

In turn, `Cl.O=C(CN1CCC(N2C(=O)OCc3ccccc32)CC1)Nc1cccc2c1-c1ccccc1C2=O` returned a melting point of 270 to 273 °C.

`Cl.O=C(CN1CCC(N2C(=O)OCc3cc(Cl)ccc32)CC1)Nc1ccc2c(c1)-c1ccccc1C2=O`: the melting point fell in the range of 245 to 249 °C.

In the case of `CN(C)CCn1ccc2c(NS(=O)(=O)c3cc(Cl)cc(Cl)c3)cccc21` [Example 7d, N-[1-(2-dimethylaminoethyl)-1H-indole-4-yl]-3,5-dichlorobenzenesulfonamide], the melting point lay in the range of 113 to 118 °C.

As for `CN1CCN(Cc2c[nH]c3ccc(NS(=O)(=O)Cc4ccccc4)cc23)CC1` [Example 41c, N-[3-(4-methylpiperazin-1-yl)methyl-1H-indol-5-yl]-α-toluenesulphonamide], the melting point fell in the range of 99 to 102 °C.

For the compound `O=S(=O)(Nc1ccc2c(ccn2CCCN2CCCCC2)c1)c1ccc(-c2ccccc2)cc1` [Example 47e, 4-phenyl-N-(1-(3-(piperidin-1-yl)propyl)-1H-indol-5-yl)benzenesulfonamide], the melting point is 148 to 150 °C.

`CN(C)CCn1ccc2cc(NS(=O)(=O)c3ccc(Br)cc3)ccc21` [Example 22e, N-[1-(2-dimethylaminoethyl)-1H-indole-5-yl]-4-bromobenzenesulfonamide] came in with a melting point of 114 to 117 °C.
